{"source": "paper PMC6780087", "about": "(Marine Drugs, 2019)", "origin": "cited, not measured here", "key": {"NaChBac [1]": {"test_system": "NaChBac", "conditions": "ref [54]"}, "NaChBac [2]": {"test_system": "NaChBac", "conditions": "ref [55]"}}}
{"smiles": "CC(C)c1cccc(C(C)C)c1O", "note": "[propofol]", "values": [{"measurement": "effect on NaChBac", "setting": "NaChBac [1]", "value": "inhibits peak currents and promotes activation-linked inactivation in NaChBac"}, {"measurement": "binding to NaChBac", "setting": "NaChBac [2]", "value": "binding to multiple channel sites"}]}
